Species on record: Rattus norvegicus
Experiment: Open TG-GATES - Regimen: Single
Assay type: toxicity, organism-based, Sprague-Dawley
Set-up: regimen Single, gender Male, age 6 weeks
Conditions: in vivo, po, 1 mg/kg, route gavage, dose level Low; for Bas / Eos / Fbg / Hb / Ht / Lym / MCHC / MCV / Mono / Neu / Plat / RBC / Ret / WBC: tissue Blood; for KIDNEY_TOTAL: tissue Kidney; for LIVER: tissue Liver; for ALT / AST / BUN / CRE / Ca / Cl / DBIL / GLC / IP / K / LDH / Na / PL / RALB / TBIL / TC / TP / gamma-GTP: tissue Plasma

C[C@@H]1C[C@H]2[C@@H]3CCC4=CC(=O)C=C[C@]4(C)[C@@]3(F)[C@@H](O)C[C@]2(C)[C@@]1(O)C(=O)CO [DEXAMETHASONE]
Bas (3 h): 0%
Eos (3 h): 0.4%
Fbg (3 h): 254 mg/dL
Hb (3 h): 13.2 g/dL
Ht (3 h): 40.3%
Lym (3 h): 67%
MCHC (3 h): 32.7%
MCV (3 h): 64 fL
Mono (3 h): 3.4%
Neu (3 h): 29.2%
Plat (3 h): 115.4 x10_4/uL
RBC (3 h): 630 x10_4/ul
Ret (3 h): 8.3%
WBC (3 h): 45.1 x10_2/uL
KIDNEY_TOTAL (3 h): 0.7 g
LIVER (3 h): 11.2 g
ALT (3 h): 43.2 IU/L
AST (3 h): 72 IU/L
BUN (3 h): 17 mg/dL
CRE (3 h): 0.4 mg/dL
Ca (3 h): 11.2 mg/dL
Cl (3 h): 102.2 meq/L
DBIL (3 h): 0.01 mg/dL
GLC (3 h): 192.6 mg/dL
IP (3 h): 12 mg/dL
K (3 h): 4 meq/L
LDH (3 h): 100.6 IU/L
Na (3 h): 142.2 meq/L
PL (3 h): 172 mg/dL
RALB (3 h): 4.3 g/dL
TBIL (3 h): 0.042 mg/dL
TC (3 h): 102 mg/dL
TP (3 h): 6.2 g/dL
gamma-GTP (3 h): 1 IU/L
TERMINAL_BW (6 h): 204.4 g
Bas (6 h): 0%
Eos (6 h): 0.2%
Fbg (6 h): 250.2 mg/dL
Hb (6 h): 13.1 g/dL
Ht (6 h): 40.4%
Lym (6 h): 59%
MCHC (6 h): 32.6%
MCV (6 h): 64.5 fL
Mono (6 h): 3.2%
Neu (6 h): 37.2%
Plat (6 h): 113.5 x10_4/uL
RBC (6 h): 627 x10_4/ul
Ret (6 h): 6.5%
WBC (6 h): 28.2 x10_2/uL
KIDNEY_TOTAL (6 h): 0.5 g
LIVER (6 h): 10.8 g
ALT (6 h): 39 IU/L
AST (6 h): 73.8 IU/L
BUN (6 h): 17.4 mg/dL
CRE (6 h): 0.4 mg/dL
Ca (6 h): 10.9 mg/dL
Cl (6 h): 102.8 meq/L
DBIL (6 h): 0.008 mg/dL
GLC (6 h): 215.8 mg/dL
IP (6 h): 8.2 mg/dL
K (6 h): 4.3 meq/L
LDH (6 h): 91.4 IU/L
Na (6 h): 138.6 meq/L
PL (6 h): 179.4 mg/dL
RALB (6 h): 4.4 g/dL
TBIL (6 h): 0.038 mg/dL
TC (6 h): 124.4 mg/dL
TP (6 h): 6.3 g/dL
gamma-GTP (6 h): 0 IU/L
TERMINAL_BW (9 h): 198.1 g
Bas (9 h): 0%
Eos (9 h): 0.2%
Fbg (9 h): 263.4 mg/dL
Hb (9 h): 13.4 g/dL
Ht (9 h): 40.9%
Lym (9 h): 55.8%
MCHC (9 h): 32.7%
MCV (9 h): 64.7 fL
Mono (9 h): 1.4%
Neu (9 h): 42.4%
Plat (9 h): 127.4 x10_4/uL
RBC (9 h): 633 x10_4/ul
Ret (9 h): 7.3%
WBC (9 h): 28.3 x10_2/uL
KIDNEY_TOTAL (9 h): 0.5 g
LIVER (9 h): 10.7 g
ALT (9 h): 38.8 IU/L
AST (9 h): 76.6 IU/L
BUN (9 h): 19.2 mg/dL
CRE (9 h): 0.4 mg/dL
Ca (9 h): 10.6 mg/dL
Cl (9 h): 102 meq/L
DBIL (9 h): 0.006 mg/dL
GLC (9 h): 217 mg/dL
IP (9 h): 7.8 mg/dL
K (9 h): 4.4 meq/L
LDH (9 h): 96.2 IU/L
Na (9 h): 138 meq/L
PL (9 h): 181.6 mg/dL
RALB (9 h): 4.7 g/dL
TBIL (9 h): 0.038 mg/dL
TC (9 h): 126 mg/dL
TP (9 h): 6.8 g/dL
gamma-GTP (9 h): 0.8 IU/L
TERMINAL_BW (24 h): 210.9 g
Bas (24 h): 0%
Eos (24 h): 0.8%
Fbg (24 h): 239.6 mg/dL
Hb (24 h): 13.8 g/dL
Ht (24 h): 41.6%
Lym (24 h): 61.4%
MCHC (24 h): 33.1%
MCV (24 h): 64.9 fL
Mono (24 h): 4.8%
Neu (24 h): 33%
Plat (24 h): 122.7 x10_4/uL
RBC (24 h): 642.2 x10_4/ul
Ret (24 h): 5.8%
WBC (24 h): 73.8 x10_2/uL
KIDNEY_TOTAL (24 h): 0.5 g
LIVER (24 h): 12 g
ALT (24 h): 35.4 IU/L
AST (24 h): 79.8 IU/L
BUN (24 h): 16.4 mg/dL
CRE (24 h): 0.4 mg/dL
Ca (24 h): 10.9 mg/dL
Cl (24 h): 99.8 meq/L
DBIL (24 h): 0.016 mg/dL
GLC (24 h): 191.8 mg/dL
IP (24 h): 8 mg/dL
K (24 h): 4.9 meq/L
LDH (24 h): 110.2 IU/L
Na (24 h): 139.2 meq/L
PL (24 h): 219.2 mg/dL
RALB (24 h): 4.6 g/dL
TBIL (24 h): 0.046 mg/dL
TC (24 h): 104.2 mg/dL
TP (24 h): 6.4 g/dL
gamma-GTP (24 h): 0 IU/L

Source: ChEMBL document CHEMBL3885861, “Open TG-GATES”
